Calls of active or inactive are those of the source.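 How the source made its calls: active means LYPLA1 and LYPLA2 each at a ratio of 0.5 or below, with under two anti-target hydrolases also at that level; inactive means the rest.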
Tests used:
Experiment in all cases: SILAC ABPP off-target profiling in HeLa cells – cell-based, LC-MS, powders, selectivity assay for LYPLA1/LYPLA2 inhibitor project, late-stage follow-up (AID 743137)
[1] = target: Prolyl endopeptidase FAP (Homo sapiens) (UniProt Q12884); details: FP-biotin LC-MS, serine hydrolase panel, at 1 µM, active compounds read low
[2] = target: Lysosomal protective protein (Homo sapiens) (UniProt P10619); details: FP-biotin LC-MS, serine hydrolase panel, CTSA, at 1 µM, active compounds read low
NCEH1 = details: FP-biotin LC-MS, serine hydrolase panel, at 1 µM, active compounds read low
ABHD10 = details: FP-biotin LC-MS, serine hydrolase panel, at 1 µM, active compounds read low
FAM111B = FAM111B (UniProt Q6SJ93); details: FP-biotin LC-MS, serine hydrolase panel, at 1 µM, active compounds read low
[3] = target: Lysosomal phospholipase A and acyltransferase (Homo sapiens) (UniProt Q8NCC3); details: FP-biotin LC-MS, serine hydrolase panel, PLA2G15, at 1 µM, active compounds read low
[4] = target: Platelet-activating factor acetylhydrolase IB subunit alpha1 (Homo sapiens) (UniProt Q15102); details: FP-biotin LC-MS, serine hydrolase panel, PAFAH1B3, at 1 µM, active compounds read low
[5] = target: Platelet-activating factor acetylhydrolase 2, cytoplasmic (Homo sapiens) (UniProt Q99487); details: FP-biotin LC-MS, serine hydrolase panel, PAFAH2, at 1 µM, active compounds read low
[6] = target: Acyl-coenzyme A thioesterase 2, mitochondrial (Homo sapiens) (UniProt P49753); details: FP-biotin LC-MS, serine hydrolase panel, ACOT2, at 1 µM, active compounds read low
ABHD12 = details: FP-biotin LC-MS, serine hydrolase panel, at 1 µM, active compounds read low
ESD = details: FP-biotin LC-MS, serine hydrolase panel, at 1 µM, active compounds read low
MAGL (MGLL) = details: FP-biotin LC-MS, serine hydrolase panel, at 1 µM, active compounds read low
FAM108B1 = details: FP-biotin LC-MS, serine hydrolase panel, at 1 µM, active compounds read low
LYPLAL1 = details: FP-biotin LC-MS, serine hydrolase panel, at 1 µM, active compounds read low
PNPLA6 = details: FP-biotin LC-MS, serine hydrolase panel, at 1 µM, active compounds read low
[7] = target: Dipeptidyl peptidase 8 (Homo sapiens) (UniProt Q6V1X1); details: FP-biotin LC-MS, serine hydrolase panel, DPP8, at 1 µM, active compounds read low
PNPLA4 = PNPLA4 (UniProt P41247); details: FP-biotin LC-MS, serine hydrolase panel, at 1 µM, active compounds read low
SCPEP1 = details: FP-biotin LC-MS, serine hydrolase panel, at 1 µM, active compounds read low
ABHD6 = details: FP-biotin LC-MS, serine hydrolase panel, at 1 µM, active compounds read low
[8] = target: Prolyl endopeptidase-like (Homo sapiens) (UniProt Q4J6C6); details: FP-biotin LC-MS, serine hydrolase panel, PREPL, at 1 µM, active compounds read low
[9] = target: Acyl-protein thioesterase 2 (Homo sapiens) (UniProt O95372); details: FP-biotin LC-MS, serine hydrolase panel, LYPLA2, at 1 µM, active compounds read low
[10] = target: Platelet-activating factor acetylhydrolase IB subunit alpha2 (Homo sapiens) (UniProt P68402); details: FP-biotin LC-MS, serine hydrolase panel, PAFAH1B2, at 1 µM, active compounds read low
[11] = target: sn-1-specific diacylglycerol lipase ABHD11 (Homo sapiens) (UniProt Q8NFV4); details: FP-biotin LC-MS, serine hydrolase panel, at 1 µM, active compounds read low
[12] = target: Acyl-protein thioesterase 1 (Homo sapiens) (UniProt O75608); details: FP-biotin LC-MS, serine hydrolase panel, LYPLA1, at 1 µM, active compounds read low
[13] = target: Lysosomal Pro-X carboxypeptidase (Homo sapiens) (UniProt P42785); details: FP-biotin LC-MS, serine hydrolase panel, PRCP, at 1 µM, active compounds read low
[14] = target: Acylamino-acid-releasing enzyme (Homo sapiens) (UniProt P13798); details: FP-biotin LC-MS, serine hydrolase panel, APEH, at 1 µM, active compounds read low

Lysosomal phospholipase A and acyltransferase (Homo sapiens), sequence (Q8NCC3 whole entry, looked up): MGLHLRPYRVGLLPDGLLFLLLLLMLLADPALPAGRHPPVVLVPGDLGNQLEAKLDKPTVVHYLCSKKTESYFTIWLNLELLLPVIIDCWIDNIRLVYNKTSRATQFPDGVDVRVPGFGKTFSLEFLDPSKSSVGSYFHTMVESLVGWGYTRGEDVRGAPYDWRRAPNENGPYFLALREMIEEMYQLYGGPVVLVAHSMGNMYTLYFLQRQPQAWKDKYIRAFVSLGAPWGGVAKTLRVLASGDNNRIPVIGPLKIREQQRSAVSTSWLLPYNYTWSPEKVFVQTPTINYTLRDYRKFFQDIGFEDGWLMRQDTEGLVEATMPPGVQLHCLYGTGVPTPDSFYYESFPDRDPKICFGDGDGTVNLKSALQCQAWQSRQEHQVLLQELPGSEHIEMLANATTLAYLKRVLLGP
Prolyl endopeptidase FAP (Homo sapiens), sequence (Q12884 whole entry, looked up): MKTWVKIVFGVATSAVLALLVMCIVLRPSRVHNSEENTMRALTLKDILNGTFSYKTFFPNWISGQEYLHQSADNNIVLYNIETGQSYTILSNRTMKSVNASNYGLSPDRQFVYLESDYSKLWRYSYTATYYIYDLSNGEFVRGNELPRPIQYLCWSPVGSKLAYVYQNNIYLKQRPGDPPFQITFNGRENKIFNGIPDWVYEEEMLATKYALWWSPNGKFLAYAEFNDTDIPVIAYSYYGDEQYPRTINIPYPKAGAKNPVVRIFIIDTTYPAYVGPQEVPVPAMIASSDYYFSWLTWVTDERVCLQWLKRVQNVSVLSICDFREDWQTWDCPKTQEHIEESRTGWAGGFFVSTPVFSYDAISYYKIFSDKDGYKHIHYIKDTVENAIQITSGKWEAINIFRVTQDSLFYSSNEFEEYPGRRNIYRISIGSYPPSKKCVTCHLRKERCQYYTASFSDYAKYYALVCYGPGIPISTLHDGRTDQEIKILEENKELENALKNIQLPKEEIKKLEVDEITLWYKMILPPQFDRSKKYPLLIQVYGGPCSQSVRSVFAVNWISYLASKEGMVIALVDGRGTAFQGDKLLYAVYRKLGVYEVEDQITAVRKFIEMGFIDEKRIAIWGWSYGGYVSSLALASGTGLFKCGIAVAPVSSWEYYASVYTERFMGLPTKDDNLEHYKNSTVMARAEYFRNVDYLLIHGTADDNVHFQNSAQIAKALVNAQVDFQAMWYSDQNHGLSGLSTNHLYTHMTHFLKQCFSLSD
Acyl-protein thioesterase 2 (Homo sapiens), sequence (O95372 whole entry, looked up): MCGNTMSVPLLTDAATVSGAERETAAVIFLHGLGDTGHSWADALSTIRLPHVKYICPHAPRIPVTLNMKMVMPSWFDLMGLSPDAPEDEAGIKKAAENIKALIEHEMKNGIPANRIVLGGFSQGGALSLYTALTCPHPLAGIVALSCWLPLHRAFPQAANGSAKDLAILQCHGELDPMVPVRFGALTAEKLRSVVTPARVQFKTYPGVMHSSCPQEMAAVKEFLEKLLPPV
Acyl-protein thioesterase 1 (Homo sapiens), sequence (O75608 whole entry, looked up): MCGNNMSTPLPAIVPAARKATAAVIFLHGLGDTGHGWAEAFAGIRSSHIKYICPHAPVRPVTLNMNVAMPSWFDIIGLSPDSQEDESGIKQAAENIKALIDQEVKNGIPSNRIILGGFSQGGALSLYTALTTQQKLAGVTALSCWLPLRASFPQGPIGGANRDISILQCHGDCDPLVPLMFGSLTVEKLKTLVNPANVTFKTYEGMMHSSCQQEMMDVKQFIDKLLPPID
sn-1-specific diacylglycerol lipase ABHD11 (Homo sapiens), sequence (Q8NFV4 whole entry, looked up): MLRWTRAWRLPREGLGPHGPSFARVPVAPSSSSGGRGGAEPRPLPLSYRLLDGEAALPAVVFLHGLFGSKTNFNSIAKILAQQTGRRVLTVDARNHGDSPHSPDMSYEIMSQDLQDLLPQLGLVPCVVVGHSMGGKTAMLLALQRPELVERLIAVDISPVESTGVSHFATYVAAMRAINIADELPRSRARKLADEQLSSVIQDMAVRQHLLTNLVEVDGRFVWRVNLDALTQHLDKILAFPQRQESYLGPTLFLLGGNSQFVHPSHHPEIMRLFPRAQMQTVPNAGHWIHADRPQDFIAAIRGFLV
Acyl-coenzyme A thioesterase 2, mitochondrial (Homo sapiens), sequence (P49753 whole entry, looked up): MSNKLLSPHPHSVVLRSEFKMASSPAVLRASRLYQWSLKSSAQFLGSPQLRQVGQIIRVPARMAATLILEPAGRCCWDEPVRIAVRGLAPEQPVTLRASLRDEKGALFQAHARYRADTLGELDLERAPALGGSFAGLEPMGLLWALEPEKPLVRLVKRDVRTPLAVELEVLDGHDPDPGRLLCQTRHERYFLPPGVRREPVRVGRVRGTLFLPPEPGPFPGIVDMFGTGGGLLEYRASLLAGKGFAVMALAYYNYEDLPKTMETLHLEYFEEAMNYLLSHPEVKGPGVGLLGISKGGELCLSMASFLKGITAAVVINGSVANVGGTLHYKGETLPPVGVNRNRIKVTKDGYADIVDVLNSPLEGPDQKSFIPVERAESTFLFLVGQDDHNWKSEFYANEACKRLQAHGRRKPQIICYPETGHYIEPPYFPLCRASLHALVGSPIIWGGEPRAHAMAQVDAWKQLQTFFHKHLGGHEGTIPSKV
Dipeptidyl peptidase 8 (Homo sapiens), sequence (Q6V1X1 whole entry, looked up): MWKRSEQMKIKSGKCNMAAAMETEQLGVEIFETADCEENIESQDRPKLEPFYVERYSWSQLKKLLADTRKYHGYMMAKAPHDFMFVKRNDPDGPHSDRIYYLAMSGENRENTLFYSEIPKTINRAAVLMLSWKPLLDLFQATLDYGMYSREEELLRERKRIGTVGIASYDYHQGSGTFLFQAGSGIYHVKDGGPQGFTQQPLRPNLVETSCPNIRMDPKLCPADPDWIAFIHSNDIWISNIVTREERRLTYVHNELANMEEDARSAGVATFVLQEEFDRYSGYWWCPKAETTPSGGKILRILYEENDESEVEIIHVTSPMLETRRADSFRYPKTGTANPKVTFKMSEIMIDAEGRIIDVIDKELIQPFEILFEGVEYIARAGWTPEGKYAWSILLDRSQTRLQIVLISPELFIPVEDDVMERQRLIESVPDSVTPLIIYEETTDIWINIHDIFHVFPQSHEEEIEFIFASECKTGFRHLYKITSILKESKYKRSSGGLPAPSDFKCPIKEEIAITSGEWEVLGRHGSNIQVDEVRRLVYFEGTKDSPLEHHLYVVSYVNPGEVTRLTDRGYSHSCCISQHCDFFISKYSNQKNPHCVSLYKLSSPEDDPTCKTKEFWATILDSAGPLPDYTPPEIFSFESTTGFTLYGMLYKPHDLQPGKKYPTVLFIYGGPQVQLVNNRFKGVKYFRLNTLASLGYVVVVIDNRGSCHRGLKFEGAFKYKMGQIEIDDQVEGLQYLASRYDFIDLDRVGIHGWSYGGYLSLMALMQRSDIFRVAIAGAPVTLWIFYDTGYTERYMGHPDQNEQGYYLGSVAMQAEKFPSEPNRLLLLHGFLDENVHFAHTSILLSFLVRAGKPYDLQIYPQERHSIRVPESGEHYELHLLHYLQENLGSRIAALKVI
Lysosomal protective protein (Homo sapiens), sequence (P10619 whole entry, looked up): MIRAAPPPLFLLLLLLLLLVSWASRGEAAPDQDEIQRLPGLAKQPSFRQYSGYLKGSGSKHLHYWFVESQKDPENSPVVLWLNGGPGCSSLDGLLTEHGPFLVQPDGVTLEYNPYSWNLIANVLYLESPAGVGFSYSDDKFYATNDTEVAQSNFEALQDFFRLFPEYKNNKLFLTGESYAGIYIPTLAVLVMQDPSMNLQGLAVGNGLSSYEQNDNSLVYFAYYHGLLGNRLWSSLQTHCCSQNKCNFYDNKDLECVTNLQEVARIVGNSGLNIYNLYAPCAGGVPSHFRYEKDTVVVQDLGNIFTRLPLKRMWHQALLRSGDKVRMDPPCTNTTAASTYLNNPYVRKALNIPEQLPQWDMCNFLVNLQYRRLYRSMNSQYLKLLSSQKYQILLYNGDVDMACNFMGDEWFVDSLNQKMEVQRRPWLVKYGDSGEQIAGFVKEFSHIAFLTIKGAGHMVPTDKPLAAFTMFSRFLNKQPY
Platelet-activating factor acetylhydrolase IB subunit alpha1 (Homo sapiens), sequence (Q15102 whole entry, looked up): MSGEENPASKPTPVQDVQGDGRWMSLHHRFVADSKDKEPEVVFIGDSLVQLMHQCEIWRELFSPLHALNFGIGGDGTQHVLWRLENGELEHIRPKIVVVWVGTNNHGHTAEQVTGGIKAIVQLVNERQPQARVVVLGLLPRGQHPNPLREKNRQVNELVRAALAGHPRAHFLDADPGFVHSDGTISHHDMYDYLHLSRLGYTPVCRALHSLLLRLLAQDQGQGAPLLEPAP
Prolyl endopeptidase-like (Homo sapiens), sequence (Q4J6C6 whole entry, looked up): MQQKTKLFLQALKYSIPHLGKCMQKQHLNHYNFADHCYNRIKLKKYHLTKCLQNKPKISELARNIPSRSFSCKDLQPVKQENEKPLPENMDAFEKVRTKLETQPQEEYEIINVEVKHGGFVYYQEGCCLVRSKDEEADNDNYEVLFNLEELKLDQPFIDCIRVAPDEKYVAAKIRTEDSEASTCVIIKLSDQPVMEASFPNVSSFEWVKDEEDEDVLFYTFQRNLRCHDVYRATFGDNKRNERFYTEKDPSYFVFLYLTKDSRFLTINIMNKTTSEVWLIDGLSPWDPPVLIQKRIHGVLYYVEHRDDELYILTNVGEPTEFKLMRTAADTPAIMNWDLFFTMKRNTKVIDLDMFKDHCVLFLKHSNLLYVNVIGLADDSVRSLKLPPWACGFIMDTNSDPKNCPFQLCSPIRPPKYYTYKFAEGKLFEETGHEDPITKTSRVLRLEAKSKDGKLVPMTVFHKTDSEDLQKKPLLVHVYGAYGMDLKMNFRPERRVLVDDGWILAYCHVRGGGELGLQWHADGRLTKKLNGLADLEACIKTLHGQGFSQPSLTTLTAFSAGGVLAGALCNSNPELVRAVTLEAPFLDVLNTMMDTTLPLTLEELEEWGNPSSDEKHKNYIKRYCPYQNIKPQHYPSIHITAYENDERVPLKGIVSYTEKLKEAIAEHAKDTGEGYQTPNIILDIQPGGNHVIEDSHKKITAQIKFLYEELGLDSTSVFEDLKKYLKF

`O=C(ON1C(=O)C2CN(C(=O)N3CCOCC3)CCN2C1=O)N1CCC(CCc2ccc(Cl)cc2)CC1` (stereo unspecified) was tested, and the inhibitor/DMSO ratio [1] was 1 (inactive), the inhibitor/DMSO ratio [2] was 1.1 (inactive) and the inhibitor/DMSO ratio (NCEH1) was 0.98 (inactive). The inhibitor/DMSO ratio (ABHD10) was 1.3 (inactive), the inhibitor/DMSO ratio (FAM111B) was 1.4 (inactive) and the inhibitor/DMSO ratio [3] was 1.4 (inactive). For the same molecule, the inhibitor/DMSO ratio [4] was 1.4 (inactive), the inhibitor/DMSO ratio [5] was 1.4 (inactive) and the inhibitor/DMSO ratio [6] was 1.4 (inactive). The inhibitor/DMSO ratio (ABHD12) was 0.83 (inactive), the inhibitor/DMSO ratio (ESD) was 1.2 (inactive) and the inhibitor/DMSO ratio (MAGL (MGLL)) was 0.57 (inactive). For the same molecule, the inhibitor/DMSO ratio (FAM108B1) was 0.98 (inactive), the inhibitor/DMSO ratio (LYPLAL1) was 1.7 (inactive) and the inhibitor/DMSO ratio (PNPLA6) was 1.2 (inactive). For the same molecule, the inhibitor/DMSO ratio [7] was 1.4 (inactive), the inhibitor/DMSO ratio (PNPLA4) was 1.2 (inactive) and the inhibitor/DMSO ratio (SCPEP1) was 0.93 (inactive). The inhibitor/DMSO ratio (ABHD6) was 0.05, the inhibitor/DMSO ratio [8] was 1.5 (inactive) and the inhibitor/DMSO ratio [9] was 0.084. For the same molecule, the inhibitor/DMSO ratio [10] was 1.2 (inactive), the inhibitor/DMSO ratio [11] was 1.3 (inactive) and the inhibitor/DMSO ratio [12] was 0.05. The inhibitor/DMSO ratio [13] was 0.93 (inactive) and the inhibitor/DMSO ratio [14] was 1.3 (inactive).
